Patent US12492183B2, “Tetrahydroquinazoline derivatives as selective cytotoxic agents” (Merck Sharp & Dohme LLC, priority 2020, dated 2025)

Tested on: PBMCs infected with VSV-G pseudotyped HIV virus (VSV-G/pNLG1-P2A-ΔEnv)
Assay: cells
Assay type: cell-based
Conditions: Homo sapiens, PBMC, read-out: TACK EC50

SMILES	EC50 [nM]
CC(F)(F)[C@@]1(C#CC2CC2)NC(=O)Nc2cc(Cc3ccc(S(N)(=O)=O)cc3)ccc21 (single isomer, unassigned) [Example 20]	115
CN1C(=O)Nc2cc(Cc3ccnc(N)n3)c(Cl)cc2[C@@]1(C#CC1CC1)C(F)(F)F (single isomer, unassigned) [Example 30]	64.7
CN1C(=O)Nc2cc(Cc3ccnc(N)n3)c(F)cc2[C@@]1(C#CC1CC1)C(F)(F)F (single isomer, unassigned) [Example 40]	41.6
Cc1nc(C)c(Cc2cc3c(cc2Cl)[C@@](C#CC2CC2)(C(F)(F)F)NC(=O)N3)c(=O)[nH]1 (single isomer, unassigned) [Example 62B]	68.7
Cc1ccc(Cc2ccc3c(c2)NC(=O)N[C@]3(C#CC2CC2)C(F)(F)F)c(=O)[nH]1 [Example 1, (S)-4-(cyclopropylethynyl)-7-((6-methyl-2-oxo-1,2-dihydropyridin-3-yl)methyl)-4-(trifluoromethyl)-3,4-dihydroquinazolin-2(1H)-one]	120
Cc1cc[nH]c(=O)c1Cc1ccc2c(c1)NC(=O)N[C@]2(C#CC1CC1)C(F)(F)F [Example 2, (S)-4-(cyclopropylethynyl)-7-((4-methyl-2-oxo-1,2-dihydropyridin-3-yl)methyl)-4-(trifluoromethyl)-3,4-dihydroquinazolin-2(1H)-one]	132
O=C1Nc2cc(Cc3ccc[nH]c3=O)ccc2[C@@](C#CC2CC2)(C(F)(F)F)N1 [Example 3, (S)-4-(cyclopropylethynyl)-7-((2-oxo-1,2-dihydropyridin-3-yl)-methyl)-4-(trifluoromethyl)-3,4-dihydroquinazolin-2(1H)-one]	237
Cn1cc(Cc2ccc3c(c2)NC(=O)N[C@]3(C#CC2CC2)C(F)(F)F)ccc1=O [Example 4, (S)-4-(cyclopropylethynyl)-7-((1-methyl-6-oxo-1,6-dihydropyridin-3-yl)methyl)-4-(trifluoromethyl)-3,4-dihydroquinazolin-2(1H)-one]	148
Cn1ccc(Cc2ccc3c(c2)NC(=O)N[C@]3(C#CC2CC2)C(F)(F)F)cc1=O [Example 5, (S)-4-(cyclopropylethynyl)-7-((1-methyl-2-oxo-1,2-dihydropyridin-4-yl)methyl)-4-(trifluoromethyl)-3,4-dihydroquinazolin-2(1H)-one]	160
NS(=O)(=O)c1ccc(Cc2ccc3c(c2)NC(=O)N[C@]3(C#CC2CC2)C(F)(F)F)c(F)c1 [Example 6, (S)-4-((4-(cyclopropylethynyl)-2-oxo-4-(trifluoromethyl)-1,2,3,4-tetrahydroquinazolin-7-yl)methyl)-3-fluorobenzenesulfonamide]	284
Nc1cc(Cc2ccc3c(c2)NC(=O)N[C@]3(C#CC2CC2)C(F)(F)F)ccc1S(N)(=O)=O [Example 7]	230
NC(=O)c1ccc(Cc2ccc3c(c2)NC(=O)N[C@]3(C#CC2CC2)C(F)(F)F)cc1 [Example 8, (S)-4-((4-(cyclopropylethynyl)-2-oxo-4-(trifluoromethyl)-1,2,3,4-tetrahydroquinazolin-7-yl)meth-yl)benzamide]	262
NS(=O)(=O)c1ccc(Cc2ccc3c(c2)NC(=O)N[C@]3(C#CC2CC2)C(F)(F)F)cc1 [Example 9, (S)-4-((4-(cyclopropylethynyl)-2-oxo-4-(trifluoromethyl)-1,2,3,4-tetrahydroquinazolin-7-yl)meth-yl)benzenesulfonamide]	193
CS(=O)(=O)c1ccc(Cc2cc3c(cc2F)[C@@](C#CC2CC2)(C(F)(F)F)NC(=O)N3)cc1 [Example 10, (S)-4-(cyclopropylethynyl)-6-fluoro-7-(4-(methylsulfonyl)-benzyl)-4-(trifluoromethyl)-3,4-dihydroquinazolin-2(1H)-one]	380
NS(=O)(=O)c1ccc(Cc2cc3c(cc2F)[C@@](C#CC2CC2)(C(F)(F)F)NC(=O)N3)cc1 [Example 11, (S)-4-((4-(cyclopropylethynyl)-6-fluoro-2-oxo-4-(trifluoromethyl)-1,2,3,4-tetrahydroquinazolin-7-yl)methyl)benzenesulfonamide]	257
Nc1cc(Cc2ccc3c(c2)NC(=O)N[C@]3(C#CC2CC2)C(F)(F)F)ccn1 [Example 12, (S)-2-amino-4-((4-(cyclopropylethynyl)-2-oxo-4-(trifluoromethyl)-1,2,3,4-tetrahydroquinazolin-7-yl)methyl)pyridin-1-ium 2,2,2-trifluoroacetate]	132
Nc1cccc(Cc2cc3c(cc2F)[C@@](C#CC2CC2)(C(F)(F)F)NC(=O)N3)n1 [Example 13, (S)-2-amino-6-((4-(cyclopropyl-ethynyl)-6-fluoro-2-oxo-4-(trifluoromethyl)-1,2,3,4-tetra-hydroquinazolin-7-yl)methyl)-pyridin-1-ium 2,2,2-trifluoro-acetate]	130

SMILES	EC50 [nM]
Nc1cc(Cc2cc3c(cc2F)[C@@](C#CC2CC2)(C(F)(F)F)NC(=O)N3)ccn1 [Example 14, (S)-2-amino-4-((4-(cyclopropyl-ethynyl)-6-fluoro-2-oxo-4-(trifluoromethyl)-1,2,3,4-tetra-hydroquinazolin-7-yl)methyl)-pyridin-1-ium 2,2,2-trifluoro-acetate]	121
Nc1ncc(F)c(Cc2ccc3c(c2)NC(=O)N[C@]3(C#CC2CC2)C(F)(F)F)n1 [Example 15, (S)-7-((2-amino-5-fluoropyrimi-din-4-yl)methyl)-4-(cycloprop-ylethynyl)-4-(trifluoromethyl)-3,4-dihydroquinazolin-2(1H)-one]	21.4
Cc1ncc(Cc2ccc3c(c2)NC(=O)N[C@]3(C#CC2CC2)C(F)(F)F)c(=O)[nH]1 [Example 16, (S)-4-(cyclopropylethynl)-7-((2-methyl-6-oxo-1,6-dihydropyrimidin-5-yl)methyl)-4-(trifluoromethyl)-3,4-dihydroquinazolin-2(1H)-one]	153
Cc1nc(C)c(Cc2cc3c(cc2F)[C@@](C#CC2CC2)(C(F)(F)F)NC(=O)N3)c(=O)[nH]1 [Example 17, (S)-4-(cyclopropylethynyl)-7-((2,4-dimethyl-6-oxo-1,6-dihydropyrimidin-5-yl)meth-yl)-6-fluoro-4-(trifluorometh-yl)-3,4-dihydroquinazolin-2(1H)-one]	46
Cc1nc[nH]c(=O)c1Cc1ccc2c(c1)NC(=O)N[C@]2(C#CC1CC1)C(F)(F)F [Example 18, (S)-4-(cyclopropylethynyl)-7-((4-methyl-6-oxo-1,6-dihydro-pyrimidin-5-yl)methyl)-4-(trifluoromethyl)-3,4-dihydro-quinazolin-2(1H)-one]	174
Cc1nc(C)c(Cc2ccc3c(c2)NC(=O)N[C@]3(C#CC2CC2)C(F)(F)F)c(=O)[nH]1 [Example 19, (S)-4-(cyclopropylethynyl)-7-((2,4-dimethyl-6-oxo-1,6-dihydropyrimidin-5-yl)meth-yl)-4-(trifluoromethyl)-3,4-dihydroquinazolin-2(1H)-one]	136
CCN1C(=O)Nc2cc(Cc3c(C)nc(C)[nH]c3=O)ccc2[C@@]1(C#CC1CC1)C(F)(F)F [Example 21, (S)-4-(cyclopropylethynyl)-7-((2,4-dimethyl-6-oxo-1,6-dihydropyrimidin-5-yl)methyl)-3-ethyl-4-(trifluoromethyl)-3,4-dihydroquinazolin-2(1H)-one]	139
Cc1nc(C)c(Cc2ccc3c(c2)NC(=O)N(C)[C@]3(C#CC2CC2)C(F)(F)F)c(=O)[nH]1 [Example 22]	230
Cc1nc(C)c(Cc2ccc3c(c2)NC(=O)N(C(C)C)[C@]3(C#CC2CC2)C(F)(F)F)c(=O)[nH]1 [Example 23, (S)-4-(cyclopropylethynyl)-7-((2,4-dimethyl-6-oxo-1,6-dihydropyrimidin-5-l)meth-yl)-3-isopropyl-4-(trifluoro-methyl)-3,4-dihydroquin-azolin-2(1H)-one]	151
Cc1nc(C)c(Cc2ccc3c(c2)NC(=O)N(CC(F)F)[C@]3(C#CC2CC2)C(F)(F)F)c(=O)[nH]1 [Example 24, (S)-4-(cyclopropylethynyl)-3-(2,2-difluoroethyl)-7-((2,4-dimethyl-6-oxo-1,6-dihydropyrimidin-5-l)meth-yl)-4-(trifluoromethyl)-3,4-dihydroquinazolin-2(1H)-one]	146
Nc1nccc(Cc2ccc3c(c2)NC(=O)N[C@]3(C#CC2CC2)C(F)(F)F)n1 [Example 25, (S)-7-((2-aminopyrimidin-4-yl)methyl)-4-(cyclopropylethynyl)-4-(trifluoromethyl)-3,4-dihydroquinazolin-2(1H)-one]	45.5
CC(F)(F)[C@@]1(C#CC2CC2)NC(=O)Nc2cc(Cc3ccnc(N)n3)ccc21 [Example 26, (S)-7-((2-aminopyrimidin-4-yl)methyl)-4-(cyclopropyl-ethynyl)-4-(1,1-difluoroethyl)-3,4-dihydroquinazolin-2(1H)-one]	31.2
Cc1cc(Cc2ccc3c(c2)NC(=O)N[C@]3(C#CC2CC2)C(F)(F)F)nc(N)n1 [Example 27, (S)-7-((2-amino-6-methylpyr-imidin-4-yl)methyl)-4-(cyclo-propylethynyl)-4-(trifluoro-methyl)-3,4-dihydroquin-azolin-2(1H)-one]	152
Nc1ncc(Cl)c(Cc2ccc3c(c2)NC(=O)N[C@]3(C#CC2CC2)C(F)(F)F)n1 [Example 28, (S)-7-((2-amino-5-chloropyr-imidin-4-yl)methyl)-4-(cyclo-propylethynyl)-4-(trifluoro-methyl)-3,4-dihydroquinazo-lin-2(1H)-one]	144
Nc1ncc(F)c(Cc2cc3c(cc2F)[C@@](C#CC2CC2)(C(F)(F)F)NC(=O)N3)n1 [Example 29, (S)-7-((2-amino-5-fluoropyr-imidin-4-yl)methyl)-4-(cyclo-propylethynyl)-6-fluoro-4-(trifluoromethyl)-3,4-dihydro-quinazolin-2(1H)-one]	49.7
Nc1nccc(Cc2cc3c(cc2Cl)[C@@](C#CC2CC2)(C(F)(F)F)NC(=O)N3)n1 [Example 31, (S)-7-((2-aminopyrimidin-4-yl)methyl)-6-chloro-4-(cyclo-propylethynyl)-4-(trifluoro-methyl)-3,4-dihydroquinazo-lin-2(1H)-one]	58.7
